In paper PMC4757794 (2016):

Legend:
[1] = tested on: CC mismatched DNA (melting temperature experiment) (DNA, mismatch bulge abasic) ATCGTCTCGGTATAA/TTATACCCAGACGAT; assay: UV melting at 260 nm; conditions: compound equimolar to DNA
[2] = tested on: matched DNA (melting temperature experiment) (DNA, duplex) ATCGTCTCGGTATAA/TTATACCGAGACGAT; assay: UV melting at 260 nm; conditions: compound equimolar to DNA

C1CCC(P(CP(C2CCCCC2)C2CCCCC2)C2CCCCC2)CC1.[Pt+2].[Pt+2].[c-]1ccccc1-c1cccc(-c2ccccn2)n1.[c-]1ccccc1-c1cccc(-c2ccccn2)n1
ΔTm [1]: 6.8 °C | ΔTm [2]: 0.5 °C
